One test relates to P. falciparum D-6 clone. Kind of test: In vitro antimalarial activity, P. falciparum D-6 clone. It is filed as cell-based. The following applies: for IC50: Plasmodium falciparum. From the text:
(§1) The analogs have been segregated arbitrarily here into those compounds in which the tetracyclic skeleton is intact (Table 2) and various ring-cleaved analogs (Table 3). The activities of the conventional malaria therapeutics chloroquine, mefloquine, and pyrimethamine is included for comparison.

A further test has as its system P. falciparum W-2 clone. Kind of test: In vitro antimalarial activity, P. falciparum W-2 clone. It is filed as cell-based. Conditions: for IC50: Plasmodium falciparum.
Excerpt: as §1

Setting [1] is: Table 3, tricyclic analogs, D-6 clone, read-out: In vitro IC50 D-6 clone.
Setting [2] is: Table 3, tricyclic analogs, D-6 clone.
Where [3] appears, read: Table 3, tricyclic analogs, W-2 clone, read-out: In vitro IC50 W-2 clone.
[4] abbreviates: Table 3, tricyclic analogs, W-2 clone.
[5] abbreviates: Table 2, D-6 clone, drug-resistant strains of P. falciparum, read-out: IC50 D-6 clone.
[6] abbreviates: Table 2, D-6 clone, drawing 57 (artemisinin) = 100.
The mark [7] stands for this setting: Table 2, W-2 clone, drug-resistant strains of P. falciparum, read-out: IC50 W-2 clone.
The mark [8] stands for this setting: Table 2, W-2 clone, drawing 57 (artemisinin) = 100.

Converted amounts (≈) assume the structure as drawn. Where two headings read alike, the source gives them in different places.

In the case of `CCC1(CC)OO[C@]23CCCC[C@H]2[C@@H](C)C(=O)O[C@@H]3O1` (relative stereo) [compound 4583], the IC50 with P. falciparum D-6 clone (setting [1]) worked out at 29.7 ng/mL (≈ 105 nM); with P. falciparum W-2 clone (setting [3]), 74.2 ng/mL (≈ 261 nM). Also, in the test with P. falciparum D-6 clone (setting [2]), the “Relative potency (D-6 clone)” value was determined as 15. The “Relative potency (W-2 clone)” value in the test with P. falciparum W-2 clone (setting [4]) was 3.
Take `CCCCCC[C@H]1C(=O)O[C@@H]2O[C@@]3(C)CC[C@H]4[C@H](C)CC[C@@H]1[C@@]24OO3` [compound 2817]: the IC50 turned out to be 0.03 ng/mL (≈ 0.0851 nM) with P. falciparum D-6 clone (setting [5]) and 0.02 ng/mL (≈ 0.0567 nM) in the test on P. falciparum W-2 clone (setting [7]). In addition, the “Relative potency (D-6 clone)” value with P. falciparum D-6 clone (setting [6]) is 467. In addition, the “Relative potency (W-2 clone)” value in the test with P. falciparum W-2 clone (setting [8]) is 550.
In the same order, the values of `C[C@@H]1CC[C@H]2[C@@H](CCCc3ccccc3)C(=O)O[C@@H]3O[C@@]4(C)CC[C@@H]1[C@]32OO4` [compound 2821] are 0.09 ng/mL (≈ 0.233 nM), 0.11 ng/mL (≈ 0.285 nM), 611 and 445.
On to `OC(c1cc(C(F)(F)F)nc2c(C(F)(F)F)cccc12)C1CCCCN1` (stereo not drawn) [Mefloquine, reference compound], for which the half-inhibitory concentration (IC50) turned out to be 43.7 ng/mL (≈ 116 nM) in the test on P. falciparum D-6 clone (setting [5]) and 2.4 ng/mL (≈ 6.34 nM) in the test with P. falciparum W-2 clone (setting [7]). Also, the “Relative potency (D-6 clone)” value with P. falciparum D-6 clone (setting [6]) turned out to be 10. Moreover, in the test on P. falciparum W-2 clone (setting [8]), the “Relative potency (W-2 clone)” value stood at 88.
`C[C@@H]1CC[C@H]2CC(=O)N(C)[C@@H]3O[C@@]4(C)CC[C@@H]1[C@@]23OO4` [compound 4585, (-)-Octahydro-3,6,11-trimethyl-3,12-epoxy-12H-pyridino-[4.3-j] 1,2-benzo dioxepin-10(3H)-one]: the “times as potent as QHS against the D-6 clone” value in the test with P. falciparum D-6 clone (D-6 clone, relative to QHS) came out at 21.7 times. The IC50 in the test on P. falciparum D-6 clone (setting [5]) came out at 2.05 ng/mL (≈ 7.29 nM); in the test on P. falciparum W-2 clone (setting [7]), 0.42 ng/mL (≈ 1.49 nM). Moreover, the “Relative potency (D-6 clone)” value in the test with P. falciparum D-6 clone (setting [6]) came out at 214. The “Relative potency (W-2 clone)” value with P. falciparum W-2 clone (setting [8]) came to 502. In the test on P. falciparum W-2 clone (W-2 clone, relative to QHS), the “times as potent as QHS against the W-2 clone” value is recorded as 5 times.
Turning to `CCN(CC)CCCC(C)Nc1ccnc2cc(Cl)ccc12` (stereo not drawn) [Chloroquine, reference compound], the IC50 amounted to 5.33 ng/mL (≈ 16.7 nM) in the test on P. falciparum D-6 clone (read-out: IC50 D-6 clone) and 31.7 ng/mL (≈ 99.1 nM) with P. falciparum W-2 clone (read-out: IC50 W-2 clone). Further, the “Relative potency (D-6 clone)” value in the test with P. falciparum D-6 clone (setting [6]) was found to be 83. In addition, the “Relative potency (W-2 clone)” value in the test on P. falciparum W-2 clone (setting [8]) amounted to 7.
In the case of `O=C1C[C@@H]2CCC[C@@H]3C[C@H]4OO[C@]32[C@H](O1)O4` (relative stereo) [compound 4589, Octahydro-3,11-epoxy-11H-pyrano[4.3-j]-1,2-benzodioxan-9(3H) -one], the IC50 with P. falciparum D-6 clone (setting [5]) worked out at 129 ng/mL (≈ 572 nM); in the test on P. falciparum W-2 clone (setting [7]), 88.7 ng/mL (≈ 392 nM). In the test with P. falciparum D-6 clone (setting [6]), the “Relative potency (D-6 clone)” value is on record as 2. Further, in the test with P. falciparum W-2 clone (setting [8]), the “Relative potency (W-2 clone)” value came to 2.
Consider `C[C@@H]1CC[C@H]2CC(=O)O[C@@H]3O[C@@]4(C)CC[C@@H]1[C@@]23OO4` [compound 4584], for which the results for the IC50 in the test on P. falciparum D-6 clone (setting [5]) and in the test on P. falciparum W-2 clone (setting [7]) were 2.32 ng/mL (≈ 8.65 nM) and 0.31 ng/mL (≈ 1.16 nM), respectively. For the same compound, the “Relative potency (D-6 clone)” value in the test with P. falciparum D-6 clone (setting [6]) amounted to 180. Moreover, in the test on P. falciparum W-2 clone (setting [8]), the “Relative potency (W-2 clone)” value came out at 650.
Consider `CCC[C@H]1C(=O)O[C@@H]2O[C@@]3(C)CC[C@H]4[C@H](C)CC[C@@H]1[C@@]24OO3` [compound 4599], for which the values for the half-inhibitory concentration (IC50) with P. falciparum D-6 clone (setting [5]) and with P. falciparum W-2 clone (setting [7]) were 0.22 ng/mL (≈ 0.709 nM) and 0.04 ng/mL (≈ 0.129 nM), respectively. The “Relative potency (D-6 clone)” value in the test on P. falciparum D-6 clone (setting [6]) was found to be 550. For the same compound, the “Relative potency (W-2 clone)” value in the test on P. falciparum W-2 clone (setting [8]) came to 1225.
Regarding “(-)-4ab,7a,7aa,10β-Hexahydro-3,3,7β,10a-tetramethyl-4aH,6H-trioxino[6.5-j][2]-benzopyran-6-one [compound 4591]”, in the test on P. falciparum D-6 clone (setting [2]), the “In vitro IC50 D-6 clone” value was 9.65 ng/mL and the “Relative potency (D-6 clone)” value is given as 8. In the test on P. falciparum W-2 clone (setting [4]), the “In vitro IC50 W-2 clone” value was determined as 9.71 ng/mL and the “Relative potency (W-2 clone)” value is 9.
In the case of `CCC[C@H]1[C@@H](OCC)O[C@@H]2O[C@@]3(C)CC[C@H]4[C@H](C)CC[C@@H]1[C@@]24OO3` [compound 4600, (+)-Octahydro-3,6-dimethyl-10β-ethoxy-3,12-epoxy-9β-propyl-12H-pyrano[4.3-j]-1,2-benzodioxepine], the values for the IC50 in the test on P. falciparum D-6 clone (setting [5]) and in the test on P. falciparum W-2 clone (setting [7]) were 0.39 ng/mL (≈ 1.15 nM) and 0.63 ng/mL (≈ 1.85 nM), respectively. In addition, the “Relative potency (D-6 clone)” value with P. falciparum D-6 clone (setting [6]) is 120. Further, the “Relative potency (W-2 clone)” value with P. falciparum W-2 clone (setting [8]) stood at 76.
With `CCO[C@H]1O[C@@H]2O[C@@]3(C)CC[C@H]4[C@H](C)CC[C@@H]([C@H]1CC)[C@@]24OO3` [compound 4598], the values for the IC50 with P. falciparum D-6 clone (setting [5]) and in the test with P. falciparum W-2 clone (setting [7]) were 0.22 ng/mL (≈ 0.674 nM) and 0.18 ng/mL (≈ 0.551 nM), respectively. Further, the “Relative potency (D-6 clone)” value in the test with P. falciparum D-6 clone (setting [6]) worked out at 550. In the test with P. falciparum W-2 clone (setting [8]), the “Relative potency (W-2 clone)” value is reported as 272.
Turning to `CC1(C)OO[C@]23CCCC[C@H]2CC(=O)O[C@@H]3O1` (relative stereo) [compound 4593, (±)-Hexahydro-3,3-dimethyl-4aH,6H-1,2,4-trioxino-[6.5-j][2] benzopyran-6-one], the IC50 is 189 ng/mL (≈ 779 nM) with P. falciparum D-6 clone (setting [1]) and 178 ng/mL (≈ 735 nM) in the test with P. falciparum W-2 clone (setting [3]). The “Relative potency (D-6 clone)” value in the test on P. falciparum D-6 clone (setting [2]) was found to be 0.4. Also, in the test on P. falciparum W-2 clone (setting [4]), the “Relative potency (W-2 clone)” value amounted to 0.5.
With `C[C@@H]1CCC[C@@]23CO[C@@](C)(CC[C@@H]12)OO3` [compound 2823], in the test with P. falciparum D-6 clone (setting [1]), the IC50 was 0.8 ng/mL (≈ 3.77 nM). Moreover, in the test with P. falciparum D-6 clone (setting [2]), the “Relative potency (D-6 clone)” value stood at 37.
On to `CCc1nc(N)nc(N)c1-c1ccc(Cl)cc1` [pyrimethamine, reference compound], for which the values for the IC50 with P. falciparum D-6 clone (setting [5]) and in the test with P. falciparum W-2 clone (setting [7]) were 0.35 ng/mL (≈ 1.41 nM) and 121 ng/mL (≈ 486 nM), respectively. Further, in the test on P. falciparum D-6 clone (setting [6]), the “Relative potency (D-6 clone)” value came to 1269. The “Relative potency (W-2 clone)” value in the test with P. falciparum W-2 clone (setting [8]) was determined as 2.
